Assay results reported in ChEMBL document CHEMBL1201862, “PubChem BioAssay data set” (2004).
The source made the active and inactive calls.

What was measured:
[1] = target: Potassium voltage-gated channel subfamily KQT member 2 (Rattus norvegicus, UniProt O88943); experiment: blockers of KCNQ2 channel current – cell-based, automated electrophysiology, set II, rat KCNQ2, dose response (AID 588637); type: functional
[2] = luciferase reporter signal suppression in cells – H4 neuroglioma cells, luminescence, dose response (AID 1990); type: functional, cell-based
[3] = target: T1, RNA-binding protein pos-1 (Caenorhabditis elegans, UniProt G5EF15); experiment: disruptors of C. elegans POS-1 RNA interaction – biochemical, fluorescence polarization, dose response (AID 1964);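 also: purified POS-1 fused to maltose binding protein made in E. coli; potency of compounds blocking POS-1 binding to fluorescent RNA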
T1 sequence (G5EF15 whole entry): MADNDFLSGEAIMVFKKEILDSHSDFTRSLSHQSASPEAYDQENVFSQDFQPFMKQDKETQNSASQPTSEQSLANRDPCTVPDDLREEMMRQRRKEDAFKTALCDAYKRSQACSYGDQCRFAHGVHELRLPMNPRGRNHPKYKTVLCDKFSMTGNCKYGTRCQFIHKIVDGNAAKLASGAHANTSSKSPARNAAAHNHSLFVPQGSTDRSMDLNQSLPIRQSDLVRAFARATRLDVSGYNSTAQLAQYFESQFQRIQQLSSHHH

[4] = Luminescence Cell-Based Dose Response HTS to Identify Inhibitors of 5'UTR Stem-Loop Driven Prion Protein mRNA Translation in H4 Neuroglioblastoma Cells. [Related pubchem assays: 1827 (Project Summary), 1813 (Primary HTS)]; type: functional
[5] = target: T2, Zinc finger protein mex-5 (Caenorhabditis elegans, UniProt Q9XUB2); experiment: potency of MEX-5 RNA-binding blockers – biochemical, C. elegans, fluorescence polarization, dose response (AID 1960)
T2 sequence (Q9XUB2 whole entry): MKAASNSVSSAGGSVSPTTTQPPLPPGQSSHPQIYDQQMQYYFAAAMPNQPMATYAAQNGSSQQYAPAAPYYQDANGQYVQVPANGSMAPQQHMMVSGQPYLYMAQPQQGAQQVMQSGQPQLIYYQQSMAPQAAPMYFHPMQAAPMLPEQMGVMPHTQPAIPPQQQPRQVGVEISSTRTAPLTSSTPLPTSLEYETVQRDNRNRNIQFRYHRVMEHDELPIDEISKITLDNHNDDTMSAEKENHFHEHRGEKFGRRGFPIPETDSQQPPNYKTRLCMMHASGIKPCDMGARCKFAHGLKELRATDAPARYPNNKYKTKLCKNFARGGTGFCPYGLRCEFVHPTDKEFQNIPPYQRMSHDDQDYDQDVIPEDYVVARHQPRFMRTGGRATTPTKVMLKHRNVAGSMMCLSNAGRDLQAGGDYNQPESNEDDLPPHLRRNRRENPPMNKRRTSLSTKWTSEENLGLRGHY

[6] = alpha-synuclein stem-loop luciferase translation blockers – H4 neuroglioma cells, luminescence, confirmation (AID 1988); type: functional, cell-based
[7] = target: Glucose-6-phosphate 1-dehydrogenase (Homo sapiens, UniProt P11413); experiment: inhibition of Homo sapiens G6PD, dose series – biochemical, fluorescence, selectivity assay for P. falciparum G6PD inhibitor project, dose response (AID 504792); type: functional
Sequence of Glucose-6-phosphate 1-dehydrogenase (P11413 whole entry): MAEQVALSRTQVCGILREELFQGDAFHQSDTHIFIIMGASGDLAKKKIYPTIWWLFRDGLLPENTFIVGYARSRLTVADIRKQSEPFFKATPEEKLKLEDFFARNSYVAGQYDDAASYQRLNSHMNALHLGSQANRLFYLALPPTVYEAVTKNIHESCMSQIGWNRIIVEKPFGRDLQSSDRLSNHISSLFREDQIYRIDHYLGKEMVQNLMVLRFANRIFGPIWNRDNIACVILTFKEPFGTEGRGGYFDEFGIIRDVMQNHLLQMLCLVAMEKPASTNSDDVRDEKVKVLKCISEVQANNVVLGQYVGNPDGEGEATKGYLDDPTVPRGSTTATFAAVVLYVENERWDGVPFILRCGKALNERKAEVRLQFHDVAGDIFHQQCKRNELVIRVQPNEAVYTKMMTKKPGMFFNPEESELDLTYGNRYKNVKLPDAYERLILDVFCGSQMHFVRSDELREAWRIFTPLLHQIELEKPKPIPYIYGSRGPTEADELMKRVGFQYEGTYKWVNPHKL

[8] = target: Cystic fibrosis transmembrane conductance regulator/Golgi-associated PDZ and coiled-coil motif-containing protein (Homo sapiens, UniProt P13569+Q9HD26); experiment: potency against CAL PDZ-peptide interaction – biochemical, fluorescence polarization, Cerulean-tagged CAL PDZ, cherry-picks, dose response (AID 504773)
[9] = target: T3, Replicative DNA helicase DnaB (Mycobacterium tuberculosis, UniProt P9WMR3); experiment: DnaB intein splicing inhibitors, dose response, biochemical, cell-free fluorescence (AID 449749); type: functional
T3 sequence (P9WMR3 whole entry): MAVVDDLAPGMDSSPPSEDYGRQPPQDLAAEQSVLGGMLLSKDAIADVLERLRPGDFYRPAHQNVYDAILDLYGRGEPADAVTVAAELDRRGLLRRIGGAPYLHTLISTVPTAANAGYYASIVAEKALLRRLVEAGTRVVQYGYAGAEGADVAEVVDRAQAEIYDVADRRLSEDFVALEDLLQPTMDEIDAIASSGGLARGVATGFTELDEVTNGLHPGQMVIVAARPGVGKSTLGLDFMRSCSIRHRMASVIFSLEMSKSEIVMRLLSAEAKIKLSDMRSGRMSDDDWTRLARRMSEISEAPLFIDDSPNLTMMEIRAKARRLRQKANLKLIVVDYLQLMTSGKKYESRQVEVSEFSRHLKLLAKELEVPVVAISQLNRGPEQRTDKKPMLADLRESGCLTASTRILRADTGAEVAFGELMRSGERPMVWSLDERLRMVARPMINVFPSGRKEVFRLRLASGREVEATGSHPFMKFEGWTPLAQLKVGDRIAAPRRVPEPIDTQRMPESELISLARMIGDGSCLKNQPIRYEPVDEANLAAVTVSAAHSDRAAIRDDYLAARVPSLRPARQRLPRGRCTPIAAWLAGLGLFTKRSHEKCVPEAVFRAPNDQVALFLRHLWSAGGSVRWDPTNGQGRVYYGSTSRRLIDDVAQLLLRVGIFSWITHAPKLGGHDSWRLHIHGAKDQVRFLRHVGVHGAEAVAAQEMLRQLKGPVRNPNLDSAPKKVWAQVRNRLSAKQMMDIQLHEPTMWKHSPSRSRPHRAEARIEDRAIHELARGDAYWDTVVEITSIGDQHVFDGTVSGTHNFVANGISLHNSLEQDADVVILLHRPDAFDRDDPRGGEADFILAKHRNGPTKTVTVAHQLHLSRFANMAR

[10] = system: Vero; experiment: viability of Vero cells under compound – cytotoxicity control for flavivirus capping enzyme inhibitors (AID 588742); type: functional; conditions: Chlorocebus sabaeus
[11] = target: T4, Protein RecA (Mycobacterium tuberculosis, UniProt P9WHJ3); experiment: Fluorescence Cell-Free Homogeneous Dose Retest to Identify Inhibitors of RecA-Intein Splicing Activity. [Related pubchem assays (depositor defined):AID2097, AID2223, AID489010, AID492950]; type: functional
T4 sequence (P9WHJ3 whole entry): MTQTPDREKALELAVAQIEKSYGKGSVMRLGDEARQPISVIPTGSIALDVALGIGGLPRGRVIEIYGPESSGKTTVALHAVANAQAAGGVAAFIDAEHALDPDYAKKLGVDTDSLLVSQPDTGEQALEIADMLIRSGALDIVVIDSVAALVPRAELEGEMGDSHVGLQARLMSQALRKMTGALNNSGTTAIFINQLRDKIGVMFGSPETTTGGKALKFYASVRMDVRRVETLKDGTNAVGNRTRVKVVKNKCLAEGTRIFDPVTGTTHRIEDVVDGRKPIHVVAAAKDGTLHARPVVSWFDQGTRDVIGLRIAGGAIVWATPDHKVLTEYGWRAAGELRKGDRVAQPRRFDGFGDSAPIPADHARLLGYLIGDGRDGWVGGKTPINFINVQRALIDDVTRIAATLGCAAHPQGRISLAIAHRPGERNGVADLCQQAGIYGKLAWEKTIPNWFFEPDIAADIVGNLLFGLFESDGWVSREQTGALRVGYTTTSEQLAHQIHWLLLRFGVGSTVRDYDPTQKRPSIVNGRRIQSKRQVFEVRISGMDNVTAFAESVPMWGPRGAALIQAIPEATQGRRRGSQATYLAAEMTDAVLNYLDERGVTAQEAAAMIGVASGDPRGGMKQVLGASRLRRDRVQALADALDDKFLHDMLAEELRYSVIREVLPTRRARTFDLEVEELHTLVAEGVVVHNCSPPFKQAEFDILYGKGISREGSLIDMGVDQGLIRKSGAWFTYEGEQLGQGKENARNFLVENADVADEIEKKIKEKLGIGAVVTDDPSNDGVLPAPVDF

[12] = target: Genome polyprotein (dengue virus type 2, UniProt P29990); experiment: flavivirus cap methylation enzyme inhibition – biochemical, confirmation dose response, primary screen (AID 588689); type: functional
Sequence of Genome polyprotein (P29990 2492-3391 limits assumed): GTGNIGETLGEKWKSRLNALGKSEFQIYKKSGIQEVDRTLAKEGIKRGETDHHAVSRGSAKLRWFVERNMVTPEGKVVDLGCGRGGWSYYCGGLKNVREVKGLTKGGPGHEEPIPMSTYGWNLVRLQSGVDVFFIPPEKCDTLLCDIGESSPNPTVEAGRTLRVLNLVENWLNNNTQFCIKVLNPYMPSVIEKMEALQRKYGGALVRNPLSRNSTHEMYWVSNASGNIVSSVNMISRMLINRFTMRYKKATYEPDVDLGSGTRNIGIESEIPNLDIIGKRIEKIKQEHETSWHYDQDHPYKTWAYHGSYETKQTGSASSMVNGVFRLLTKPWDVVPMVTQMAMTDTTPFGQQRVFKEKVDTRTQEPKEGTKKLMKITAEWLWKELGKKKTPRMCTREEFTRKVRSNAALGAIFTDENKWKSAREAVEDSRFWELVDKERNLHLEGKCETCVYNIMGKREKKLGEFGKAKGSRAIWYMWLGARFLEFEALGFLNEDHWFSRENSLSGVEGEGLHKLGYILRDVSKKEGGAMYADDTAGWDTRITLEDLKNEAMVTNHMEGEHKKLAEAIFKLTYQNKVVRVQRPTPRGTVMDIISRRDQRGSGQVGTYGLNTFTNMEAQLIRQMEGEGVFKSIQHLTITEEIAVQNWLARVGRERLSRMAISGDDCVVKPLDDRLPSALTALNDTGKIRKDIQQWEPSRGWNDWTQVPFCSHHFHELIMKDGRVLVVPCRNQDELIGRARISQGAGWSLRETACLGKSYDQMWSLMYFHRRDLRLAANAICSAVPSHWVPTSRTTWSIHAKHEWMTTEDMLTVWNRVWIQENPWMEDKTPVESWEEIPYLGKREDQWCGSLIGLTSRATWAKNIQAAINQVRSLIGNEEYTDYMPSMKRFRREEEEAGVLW

[13] = disruptors of CAL PDZ reporter peptide binding – biochemical, fluorescence polarization, untagged CAL PDZ, dry powder, dose response (AID 602255); type: functional
[14] = target: Tyrosyl-DNA phosphodiesterase 2 (Homo sapiens, UniProt O95551); experiment: potency against TDP2 phosphodiesterase activity – biochemical, epi absorbance, IC50, dose response (AID 743297)
Sequence of Tyrosyl-DNA phosphodiesterase 2 (O95551 whole entry): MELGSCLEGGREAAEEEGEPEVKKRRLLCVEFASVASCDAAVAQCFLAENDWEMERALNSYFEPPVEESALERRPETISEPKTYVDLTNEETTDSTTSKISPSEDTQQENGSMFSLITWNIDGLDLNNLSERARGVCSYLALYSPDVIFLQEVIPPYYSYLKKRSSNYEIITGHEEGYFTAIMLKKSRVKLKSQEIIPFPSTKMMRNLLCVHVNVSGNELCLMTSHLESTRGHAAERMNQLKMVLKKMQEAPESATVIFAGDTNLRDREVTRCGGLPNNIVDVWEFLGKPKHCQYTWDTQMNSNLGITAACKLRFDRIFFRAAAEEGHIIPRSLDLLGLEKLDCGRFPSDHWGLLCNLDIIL

[15] = NIH-3T3 fibroblast cytotoxicity, dose response, cytotoxicity control, cell-based, fluorescence, Alamar Blue, secondary assay (AID 2327); type: functional;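 also: NIH-3T3 mouse fibroblasts cultured with fluconazole at 8 µg/mL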
[16] = fluconazole-exposed Candida albicans growth modulators – fluorescence, retest, confirmation (AID 2467); type: functional, cell-based
[17] = Trypanosoma cruzi growth suppression in host cells – NIH3T3 host cells, beta-gal luminescence, confirmation (AID 2044); type: functional, cell-based;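 also: intracellular parasites grown in NIH/3T3 mouse fibroblasts as host cells; luminescent beta-galactosidase reporter signal from transgenic T. cruzi replicating inside host cells; inhibitors lower the luminescence signal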
[18] = NIH3T3 cell viability loss – ATP luminescence, mouse fibroblasts, counter-screen, dose response (AID 2010); type: functional, cell-based;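 also: cells exposed to compound for about 90 hours before reading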
[19] = target: T5, Short transient receptor potential channel 4 (Mus musculus, UniProt Q9QUQ5); experiment: block of DAMGO-driven TRPC4 calcium entry – cell-based, HEK293 TRPC4/mu-opioid, Fluo-4 calcium, dose response (AID 434942); type: functional;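 also: potency of inhibitors blocking the TRPC4 calcium response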
T5 sequence (Q9QUQ5 whole entry): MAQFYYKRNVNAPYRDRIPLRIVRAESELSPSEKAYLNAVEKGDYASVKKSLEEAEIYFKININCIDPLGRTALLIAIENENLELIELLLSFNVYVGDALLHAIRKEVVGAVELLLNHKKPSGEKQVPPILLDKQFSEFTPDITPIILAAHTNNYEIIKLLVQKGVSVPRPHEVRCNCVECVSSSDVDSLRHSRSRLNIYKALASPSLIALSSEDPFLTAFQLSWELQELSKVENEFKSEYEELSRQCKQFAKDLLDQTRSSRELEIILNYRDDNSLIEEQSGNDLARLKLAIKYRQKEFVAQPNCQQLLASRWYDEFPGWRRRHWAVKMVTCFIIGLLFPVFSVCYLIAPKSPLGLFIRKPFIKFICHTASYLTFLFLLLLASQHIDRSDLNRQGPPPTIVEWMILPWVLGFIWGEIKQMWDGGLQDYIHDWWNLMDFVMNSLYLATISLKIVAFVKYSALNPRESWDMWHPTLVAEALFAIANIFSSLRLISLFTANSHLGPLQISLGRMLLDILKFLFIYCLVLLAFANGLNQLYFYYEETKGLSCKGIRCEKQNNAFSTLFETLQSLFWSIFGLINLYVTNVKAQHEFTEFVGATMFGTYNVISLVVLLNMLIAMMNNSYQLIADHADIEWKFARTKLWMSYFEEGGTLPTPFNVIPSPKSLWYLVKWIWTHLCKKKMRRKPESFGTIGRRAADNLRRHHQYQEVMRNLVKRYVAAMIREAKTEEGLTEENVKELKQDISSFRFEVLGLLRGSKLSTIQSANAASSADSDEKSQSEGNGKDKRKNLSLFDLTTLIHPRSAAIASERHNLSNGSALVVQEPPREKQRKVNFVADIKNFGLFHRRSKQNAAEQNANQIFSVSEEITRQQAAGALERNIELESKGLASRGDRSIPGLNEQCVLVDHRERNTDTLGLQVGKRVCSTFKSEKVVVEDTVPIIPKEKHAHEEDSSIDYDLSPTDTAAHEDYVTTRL

[20] = target: T6, Ubiquitin-conjugating enzyme E2 N (Homo sapiens, UniProt P61088); type: functional;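 also: Dose-response confirmation in a TR-FRET assay detecting UBC13-driven polyubiquitin chain formation, inhibition measured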
T6 sequence (P61088 whole entry): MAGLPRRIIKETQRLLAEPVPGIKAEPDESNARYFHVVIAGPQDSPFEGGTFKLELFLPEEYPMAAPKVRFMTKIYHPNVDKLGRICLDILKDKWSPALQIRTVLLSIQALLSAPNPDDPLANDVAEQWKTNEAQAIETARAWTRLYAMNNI

[21] = target: Benomyl/methotrexate resistance protein (Candida albicans, UniProt P28873); experiment: Candida albicans Mdr1 pump inhibition curves – singleplex, Cherry Pick1 hits, dose response (AID 588608); type: functional
Sequence of Benomyl/methotrexate resistance protein (P28873 whole entry, the tested form may be a part): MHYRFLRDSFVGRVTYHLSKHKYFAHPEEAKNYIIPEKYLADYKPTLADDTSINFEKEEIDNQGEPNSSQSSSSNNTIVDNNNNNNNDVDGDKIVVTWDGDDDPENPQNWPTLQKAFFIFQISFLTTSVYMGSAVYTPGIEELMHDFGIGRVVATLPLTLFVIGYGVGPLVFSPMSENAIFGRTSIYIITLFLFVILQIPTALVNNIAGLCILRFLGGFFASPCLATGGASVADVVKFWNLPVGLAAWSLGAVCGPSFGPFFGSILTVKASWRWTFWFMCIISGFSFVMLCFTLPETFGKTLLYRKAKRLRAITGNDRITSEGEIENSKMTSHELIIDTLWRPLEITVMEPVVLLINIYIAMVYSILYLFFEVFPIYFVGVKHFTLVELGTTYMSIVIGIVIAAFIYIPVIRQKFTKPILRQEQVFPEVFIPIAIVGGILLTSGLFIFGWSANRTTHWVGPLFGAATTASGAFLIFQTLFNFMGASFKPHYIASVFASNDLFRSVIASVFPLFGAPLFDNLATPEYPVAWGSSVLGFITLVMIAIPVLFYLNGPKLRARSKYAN

[22] = Fluorescence-based cell-based high throughput dose response assay for inhibitors of the interaction of nucleotide-binding oligomerization domain containing 2 (NOD2) and the receptor-interacting serine-threonine kinase 2 (RIPK2).; type: functional; conditions: Homo sapiens
[23] = target: Tyrosine-protein phosphatase non-receptor type 11 (Homo sapiens, UniProt Q06124); experiment: PTPN11 enzyme inhibitors – biochemical, selectivity assay for STEP inhibitor project, dose response (AID 602367); type: functional; conditions: read-out: IC50_Mean
Sequence of Tyrosine-protein phosphatase non-receptor type 11 (Q06124 whole entry): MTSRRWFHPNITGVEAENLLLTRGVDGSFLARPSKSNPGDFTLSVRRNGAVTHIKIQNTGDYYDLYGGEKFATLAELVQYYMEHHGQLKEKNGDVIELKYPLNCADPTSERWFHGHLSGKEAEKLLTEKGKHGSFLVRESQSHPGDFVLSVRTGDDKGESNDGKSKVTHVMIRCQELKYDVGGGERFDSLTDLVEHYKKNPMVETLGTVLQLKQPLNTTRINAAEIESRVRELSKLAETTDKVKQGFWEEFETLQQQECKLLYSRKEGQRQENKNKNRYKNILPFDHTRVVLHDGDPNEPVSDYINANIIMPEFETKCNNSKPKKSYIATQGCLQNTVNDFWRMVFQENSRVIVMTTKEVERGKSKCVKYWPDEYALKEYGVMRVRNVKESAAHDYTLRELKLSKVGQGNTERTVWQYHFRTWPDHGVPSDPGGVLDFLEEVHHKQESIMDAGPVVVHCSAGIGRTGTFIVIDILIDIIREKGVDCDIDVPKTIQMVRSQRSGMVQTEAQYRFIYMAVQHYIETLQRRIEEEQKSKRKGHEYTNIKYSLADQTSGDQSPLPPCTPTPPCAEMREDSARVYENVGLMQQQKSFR

[24] = target: Tyrosine-protein phosphatase non-receptor type 5 (Homo sapiens, UniProt P54829); experiment: PTPN5 enzyme inhibition – biochemical, fluorescence intensity, uHTS hits, confirmation (AID 602372); type: functional; conditions: read-out: IC50_Mean
Sequence of Tyrosine-protein phosphatase non-receptor type 5 (P54829 whole entry): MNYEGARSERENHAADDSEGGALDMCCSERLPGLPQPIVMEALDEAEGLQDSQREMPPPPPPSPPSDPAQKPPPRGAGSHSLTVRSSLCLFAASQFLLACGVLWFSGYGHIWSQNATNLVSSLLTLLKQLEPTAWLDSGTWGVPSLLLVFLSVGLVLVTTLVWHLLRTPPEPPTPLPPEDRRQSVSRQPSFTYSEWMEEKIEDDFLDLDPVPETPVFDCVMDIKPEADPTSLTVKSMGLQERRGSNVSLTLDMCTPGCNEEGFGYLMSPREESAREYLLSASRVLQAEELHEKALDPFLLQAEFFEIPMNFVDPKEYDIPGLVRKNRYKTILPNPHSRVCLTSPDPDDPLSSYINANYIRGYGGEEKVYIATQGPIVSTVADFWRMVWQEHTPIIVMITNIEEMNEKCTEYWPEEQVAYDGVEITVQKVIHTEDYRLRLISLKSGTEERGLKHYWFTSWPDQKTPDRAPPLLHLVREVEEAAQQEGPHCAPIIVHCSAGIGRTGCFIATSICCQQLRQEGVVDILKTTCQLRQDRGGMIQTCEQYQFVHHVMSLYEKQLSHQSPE

[25] = target: Dual specificity protein phosphatase 3 (Homo sapiens, UniProt P51452); experiment: VHR phosphatase inhibition, dose response, selectivity assay for STEP inhibitor project, biochemical (AID 602374); type: functional; conditions: read-out: IC50_Mean
Sequence of Dual specificity protein phosphatase 3 (P51452 whole entry): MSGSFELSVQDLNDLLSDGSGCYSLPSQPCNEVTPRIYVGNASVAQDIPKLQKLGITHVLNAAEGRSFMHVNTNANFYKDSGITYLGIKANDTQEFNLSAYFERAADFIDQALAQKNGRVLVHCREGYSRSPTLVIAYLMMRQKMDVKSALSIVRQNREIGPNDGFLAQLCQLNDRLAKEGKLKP

Sequence of Potassium voltage-gated channel subfamily KQT member 2 (O88943 whole entry): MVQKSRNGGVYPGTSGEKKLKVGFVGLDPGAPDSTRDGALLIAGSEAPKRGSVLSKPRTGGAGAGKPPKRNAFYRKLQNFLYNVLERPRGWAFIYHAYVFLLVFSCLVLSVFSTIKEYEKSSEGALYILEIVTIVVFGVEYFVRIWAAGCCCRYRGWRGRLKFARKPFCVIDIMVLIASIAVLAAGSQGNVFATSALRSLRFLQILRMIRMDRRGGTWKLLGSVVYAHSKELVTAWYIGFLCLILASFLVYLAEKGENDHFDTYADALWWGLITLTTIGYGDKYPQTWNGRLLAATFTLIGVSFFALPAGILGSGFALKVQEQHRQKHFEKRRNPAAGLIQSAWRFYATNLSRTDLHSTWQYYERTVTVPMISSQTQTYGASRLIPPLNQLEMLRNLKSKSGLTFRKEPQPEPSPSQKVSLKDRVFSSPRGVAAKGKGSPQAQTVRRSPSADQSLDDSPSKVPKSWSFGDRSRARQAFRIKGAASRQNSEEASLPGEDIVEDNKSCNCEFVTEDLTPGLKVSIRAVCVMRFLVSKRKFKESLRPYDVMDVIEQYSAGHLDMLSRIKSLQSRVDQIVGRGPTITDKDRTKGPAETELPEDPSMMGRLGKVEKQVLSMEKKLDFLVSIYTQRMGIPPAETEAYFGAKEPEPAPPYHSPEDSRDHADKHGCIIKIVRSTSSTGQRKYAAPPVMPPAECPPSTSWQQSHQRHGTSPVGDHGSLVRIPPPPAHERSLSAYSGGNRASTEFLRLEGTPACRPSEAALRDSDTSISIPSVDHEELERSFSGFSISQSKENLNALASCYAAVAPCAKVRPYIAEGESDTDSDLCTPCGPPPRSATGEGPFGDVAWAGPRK

## COc1cc2cc(C(c3nnnn3Cc3ccc(F)cc3)N3CCCCCC3)c(O)nc2cc1OC (stereo not given)
[1]
  IC50: 4.96 µM (active)

## CCOc1ccc(S(=O)(=O)Nc2cc(SCC(=O)O)c(O)c3ccccc23)cc1
[2]
  EC50: > 120 µM (not active)
[3]
  EC50: 78.8 µM (active)
[4]
  EC50: > 120 µM (not active)
[5]
  EC50: 11.9 µM (inconclusive)
[6]
  EC50: > 120 µM (not active)
[7]
  IC50: 28.4 µM (inactive)
[8]
  AC50: 36.2 µM (active)
[9]
  AC50: 20.7 µM (active)
[10]
  CC50: 26.6 µM (active)
[11]
  EC50: 4.23 µM (active)
[12]
  IC50: 7.49 µM (active)
[13]
  AC50: 54.4 µM (active)
[14]
  IC50: 68.8 µM (inactive)

## O=C(C[n+]1cc(-c2ccc(Cl)c(Cl)c2)n2c1CCC2)N1c2ccccc2Sc2ccccc21
[15]
  EC50: > 150 µM (inactive)
[16]
  EC50: 1.1 µM (active)
[17]
  EC50: 0.845 µM (active)
[18]
  EC50: > 60 µM (not active)
[19]
  EC50: 1.88 µM (active)
[20]
  IC50: > 20 µM (inactive)
[21]
  EC50: 0.014 µM (active)

## Cn1cnc([N+](=O)[O-])c1S(=O)(=O)Oc1cccc2ccccc12
[22]
  IC50: 3.4 µM (active)

## Cc1nn(C)cc1/C=N/NC(=S)Nc1ccccc1
[23]
  IC50: 3.15 µM (active)
[24]
  IC50: 26.5 µM (inactive)
[25]
  IC50: 1.22 µM (active)
